Test results reported in US20240426838A1, “CRISPR/CAS-Associated Detection Assays, Methods and Kits” (BioPoint Pty Limited, priority 2021, published 2024).

Tests used:
Format in all cases: biochemical
[1] = tested on: Cas12a; assay: Evaluation of trans-cleavage activity of Cas12a with chemical enhancers (fluorescence readout); conditions: for fluorescence intensity, fold of that in the control: optimised concentrations, Texas Red ssDNA target, incubation time 2 h; for performance with ssRNA target: ssRNA target (FAM), 37° C. incubation; for optimum concentration leading to the highest trans-cleavage rate: sulfhydryl reductant
Description: For all trans-cleavage activity evaluation experiments, the CRISPR/Cas12a reaction mixture was prepared as follows: 1 μL 100 μM ([…]) of Cas12a protein was gently mixed with 5 μL 20 μM ([…]) gRNA in 3.6 mL 1×NEB 2.1 buffer. […] Different chemical enhancers (sulfhydryl reductant and surfactant) were first dissolved in MilliQ water to produce high concentration storage solutions, then a certain amount of storage solution was added into the standard CRISPR/Cas12a reaction mixture to realize the final reaction mixture with defined concentration of enhancers.
5 μL 1 μM single strand trigger DNA was applied in 100 μL prepared CRISPR/Cas12a reaction mixture for starting the CRISPR reaction process. SpectraMax i3x multi-Mode Microplate Reader (Molecular devices) was applied for the detection of fluorescence readout.

[2] = tested on: Cas12a; assay: Optimization of chemical-based reaction buffer, RNA reporter based CRISPR/Cas12a system; conditions: chemicals added in NEB2.1 buffer; DTT 10 mM
Description: 10 μL 10 μM ([…]) Cas12a protein was gently mixed with 5 μL 20 μM ([…]) gRNA in 3.6 mL 1×NEB 2.1 buffer, which was diluted by Milli-Q water. Then, 6 μL 100 μM (0.6 nmol) ssRNA linked fluorescent reporter was added and well mixed to form the final reaction mixture. The prepared reaction mixture was kept on ice before use.
Three different chemicals were applied in the reaction buffer system, and the concentration of 1,4-dithiothreitol (DTT) was 10 mM, the concentration of Tris(2-carboxyethyl)phosphine hydrochloride (TCEP) was 0.5 mM, and the concentration of Polyvinyl alcohol (PVA) was 10 mg/mL.

[3] = tested on: Cas12a; assay: Trans-cleavage ability of antibody-Cas12a/gRNA (BAC) conjugate with ssDNA reporters; conditions: for reaction time to reach desired fluorescent signal intensity, faster than control: BAC conjugate, 10 mM DTT
Description: Firstly, 2 uL 100 μM (30 ug) Cas12a protein and 10 uL 20 μM gRNA were mixed in 30 uL NEB2.1 buffer to form the Cas12a/gRNA mixture solution. In the meanwhile, 3 uL modifier from the streptavidin conjugation kit (Abcam, ab102921) was mixed with 23 uL 1.3 mg/mL (30 ug) Cry104 antibody gently. Then, the two types of solutions were mixed together and incubated for 3 hours at room temperature. After the incubation, 3 uL quencher from the streptavidin conjugation kit (Abcam, ab102921) was added into the solution to stop the excess conjugation reaction. Finally, 50% glycerol (volume) was added into the prepared antibody-Cas12a/gRNA solution for long time storage in −20° C. freezer.
For comparison, an antibody-Cas12a conjugate was prepared according to the same procedure, where only Cas12a protein was mixed with the Cry104 antibody and modifier (i.e. without gRNA).
The standard CRISPR/Cas12a mixture was first prepared using Cry104-Cas12a/gRNA conjugate. Briefly, 100 pmol of Cry104-Cas12a/gRNA conjugate was added into 3.6 mL 1×NEB 2.1 buffer. Then, 6 μL 100 μM (0.6 nmol) ssDNA linked fluorescent reporter and 36 μL 1 M DTT were added and well mixed to form the final reaction mixture. The prepared reaction mixture was kept on ice before use.
In order to evaluate the trans-cleavage ability of Cry104-Cas12a/gRNA conjugate, 5 μL 1 μM triggering ssDNA was added into 100 μL prepared standard CRISPR/Cas12a mixture and incubated for 120 min at room temperature or 37° C. before fluorescence signal test using ID3 plate reader (Excitation wavelength of 570 nm and emission wavelength of 615 nm).

[4] = tested on: Cas12a; assay: Electrophoretic mobility shift assay of chemical enhancers on CRISPR/Cas12a; conditions: optimal concentrations (10 mM DTT, 500 μM TCEP, 1% PVA, 0.04% Brij23)
Description: This is because fluorescence process may be independently affected by chemical enhancers used here. Briefly, the standard CRISPR/Cas12a reaction mixture was prepared as per point 1 above, then chemical enhancers were added at concentrations determined to be optimal (10 mM DTT, 500 μM TCEP, 1% PVA, 0.04% Brij23), and the same volume of 1×PBS was also used as the control. […] Alternatively, 50 μL of CRISPR/Cas12a and the chemical enhancer mixture was firstly mixed with 1 μL different concentrations of target ssDNA (5 μM, 10 μM, 15 μM, 20 μM), and then either 1 μL 1 μM triggering ssDNA was added or 1 μL PBS as control. The reaction mixtures were incubated at 26° C. for 60 mins, and then deactivated at 65° C. for 15 mins. Afterwards, 10 μL of each deactivated reaction mixture was mixed with 2 μL 6× loading dye and loaded onto 3% Agarose gel with 1× GelRed nucleic acid dye for voltage-constant electrophoresis at 60V for 100 mins.

[5] = target: T1, Cas13a (Leptotrichia wadei, UniProt U2PSH1); assay: Evaluation of trans-cleavage activity of chemically induced CRISPR/Cas13a system
T1 construct: Twinstrep (N); SUMO (N); His tag (only implied by HisTrap purification); host or cells: E. coli
Description: For all trans-cleavage evaluation experiments, the CRISPR/Cas13a reaction mixture was prepared as follows: 10 μL 4 μM (40 μmol) of Cas13a protein was gently mixed with 2 μL 20 μM (40 μmol) gRNA in 1 mL reaction buffer. Then, 6 μL 20 μM (120 μmol) of pre-synthesized ssRNA target (FAM) was added and well mixed to form the standard reaction mixture.
Diverse types of chemicals were first dissolved in MilliQ water to produce high concentration storage solutions, then a certain amount of storage solution was added into the standard CRISPR/Cas13a reaction mixture to realize the certain concentration of chemical involved final reaction mixture.
2 μL 1 μM single strand trigger RNA was applied in 100 μL prepared CRISPR/Cas13a reaction mixture for starting the CRISPR reaction process. ID3 plate reader was applied for the detection of fluorescence readout from FAM modified target with the excitation wavelength of 480 nm and emission wavelength of 520 nm.

T1 sequence (U2PSH1 whole entry): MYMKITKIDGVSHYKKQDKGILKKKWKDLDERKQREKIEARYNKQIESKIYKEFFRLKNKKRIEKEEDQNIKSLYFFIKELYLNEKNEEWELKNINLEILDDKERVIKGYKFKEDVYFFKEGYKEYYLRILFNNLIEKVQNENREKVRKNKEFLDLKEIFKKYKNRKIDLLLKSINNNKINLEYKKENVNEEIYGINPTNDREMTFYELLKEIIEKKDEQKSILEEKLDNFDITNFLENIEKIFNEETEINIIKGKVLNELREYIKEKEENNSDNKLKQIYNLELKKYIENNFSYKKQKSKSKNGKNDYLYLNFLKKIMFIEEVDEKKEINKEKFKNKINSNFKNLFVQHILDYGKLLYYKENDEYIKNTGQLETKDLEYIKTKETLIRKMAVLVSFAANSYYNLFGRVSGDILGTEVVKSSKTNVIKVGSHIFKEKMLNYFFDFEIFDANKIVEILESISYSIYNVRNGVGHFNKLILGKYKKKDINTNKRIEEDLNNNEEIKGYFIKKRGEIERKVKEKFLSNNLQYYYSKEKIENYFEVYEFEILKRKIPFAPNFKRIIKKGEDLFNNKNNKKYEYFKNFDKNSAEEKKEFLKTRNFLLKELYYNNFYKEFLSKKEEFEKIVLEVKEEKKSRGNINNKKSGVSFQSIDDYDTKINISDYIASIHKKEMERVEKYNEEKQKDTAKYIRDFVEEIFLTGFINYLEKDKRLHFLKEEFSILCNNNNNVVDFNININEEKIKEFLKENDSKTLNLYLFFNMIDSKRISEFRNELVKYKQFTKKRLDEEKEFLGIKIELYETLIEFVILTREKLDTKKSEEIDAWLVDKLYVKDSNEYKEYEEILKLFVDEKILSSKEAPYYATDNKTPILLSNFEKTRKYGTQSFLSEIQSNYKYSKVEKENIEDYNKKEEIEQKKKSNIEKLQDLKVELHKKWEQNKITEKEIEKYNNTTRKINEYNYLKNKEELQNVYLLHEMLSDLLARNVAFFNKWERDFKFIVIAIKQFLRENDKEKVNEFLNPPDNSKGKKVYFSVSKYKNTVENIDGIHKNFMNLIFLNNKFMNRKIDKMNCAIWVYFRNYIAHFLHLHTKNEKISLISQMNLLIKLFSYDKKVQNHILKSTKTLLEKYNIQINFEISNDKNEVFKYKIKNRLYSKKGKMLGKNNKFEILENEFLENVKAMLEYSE

Compound | fluorescence intensity, fold of that in the control [1] [fold] | performance with ssRNA target [1] | optimum concentration leading to the highest trans-cleavage rate ([1]; Cas12a) [mM] | optimum concentration of non-ionic surfactant ([1]; Cas12a, Texas red DNA reporter) [%] | performance of RNA reporter based CRISPR/Cas12a biosensing system [2] | fluorescence signal relative to controls without DTT ([1]; Cy5.5 ssDNA target, 120 min) | reaction time to reach desired fluorescent signal intensity, faster than control [3] [%] | reaction time to reach desired fluorescent signal intensity, faster than control ([3]; 37° C.) [%] | fluorescence signal output, factor versus control reaction ([3]; DTT 10 mM and 37° C.) | fluorescence signal increase of BAC conjugate ([3]; DTT 10 mM, room temperature) [times] | effect in electrophoretic mobility shift assay [4] | optimum concentration [5] [mM]
O=C(O)CCP(CCC(=O)O)CCC(=O)O [TCEP, Tris(2-carboxyethyl)phosphine] | 2.4 | Enhanced performances | 0.5 | – | – | – | – | – | – | – | – | –
Triton X-100 | – | – | – | 0.01 | – | – | – | – | – | – | – | –
O[C@H](CS)[C@H](O)CS (racemic) [DTT, Dithiothreitol] | 1.3 | Enhanced performances | 10 | – | best performance | around three | ~50 | ~70 | approximately 2 | ~1.4 | increased cleavage of the target DNA | 5
OCCS [2-ME, 2-Mercaptoethanol] | 3.4 | – | 1 | – | – | – | – | – | – | – | – | –
